Reference: patent US5210239A, “Ouinone derivatives and pharmacological use” (Eisai Co., Ltd., priority 1989, dated 1993)
Read-outs that look alike come from different tables or passages of the source.

Assays:
[1] = Toxicity test, one week oral administration; type: in vivo; parameters: dose or concentration left out as unconfirmed; details: seven-week male SD rat
[2] = tested on: rat D-galactosamine (GalN)-induced acute hepatitis model; assay: rat D-galactosamine (GalN)-induced acute hepatitis model; type: in vivo, Fischer (F 344) male rat; details: 300 mg/kg GalN s.c., compound 100 mg/kg oral 1 hr after GalN, blood 48 hr after GalN
Description: 300 mg/kg of GalN was subcutaneously injected into a Fischer (F 344) male rat(s) (around 180 g) to induce acute hepatitis. Each test compound was suspended in a 0.5% aqueous methylcellulose solution and orally administered at a dose of 100 mg/kg one hr after the injection of GalN.
Blood was sampled from the tail of the rat 48 hr after the injection of GalN. The blood clotting time was measured by Hepaplastin test (HPT), and at the same time GPT activity in the plasma was measured enzymatically.

[3] = tested on: mouse propionibactrium acnes (P. acnes)-lipopolysaccharide (LPS)-induced fulminant hepatitis model; assay: mouse P. acnes-lipopolysaccharide (LPS)-induced fulminant hepatitis model; type: in vivo, male Balb/c mice; details: for responders at 100 mg/kg: Cutibacterium acnes, po, 24 h, read-out: Survival rate (%), test compd. group
Description: One mg/mouse of heat-killed P. acnes was intravenously injected into a five-week-old male Balb/c mice and LPS was additionally intravenously injected at a dose of 1 microgram/mouse 7 days after the injection of P.acnes to induce fulminant hepatitis. Each test compound was suspended in a 0.5% methylcellulose solution and orally administered at a dose of 100 mg/kg 30 min before the intravenous injection of LPS.
Survival rates and GPT activity in plasma of the survivors were determined in 24 hours after the intravenous injection of LPS. The mice treated with each test compound against the lethality and hepatic injury induced with P. acnes-LPS are shown in Table 2.

[4] = read-out: Percentage inhibition (%) GPT (plasma GPT activity)
[5] = read-out: Percentage inhibition (%) HPT (blood clotting time, Hepaplastin test)
[6] = plasma GPT of survivors 24 hours after LPS, 100 mg/kg oral, value is test group

SMILES	death [1]	inhibition in vivo at 100 mg/kg [2, 4] [%]	inhibition in vivo at 100 mg/kg [2, 5] [%]	responders at 100 mg/kg [3] [%]	GPT (survival rate), test compd. group (%) [part 1] [3, 6] [%]	GPT (Ku/ml), test compd. group [part 2] [3, 6] [Ku/ml]
CCCCCCCCC/C(=C\C1=C(C)C(=O)C(OC)=C(OC)C1=O)C(=O)O [Example 4, (E)-3-[5-(2,3-Dimethoxy-6-methyl-1,4-benzoquinoyl)]-2-nonyl-2-propenoic acid]	no compound was found to cause death	91	87	64	358 ± 40	–
COc1c(O)c(C)c(/C=C(\C(=O)O)c2ccccc2)c(OC)c1OC [Example 14, (Z)-3-[5-(1-Hydroxy-6-methyl-2,3,4-trimethoxy)phenyl]-2-phenyl-2-propenoic acid]	–	78	76	100	297 ± 50	–
CCCCC/C(=C\c1c(C)c(O)c(OCC)c(OCC)c1OCC)C(=O)O [compound 20]	–	68	68	70	293 ± 65	–
CCOc1c(O)c(C)c(/C=C(\Cc2ccccc2)C(=O)O)c(OCC)c1OCC [compound 79]	–	94	89	50	1009 ± 196	–
CCCCCCCCC/C(=C\c1c(C)c(O)c(OC)c(OC)c1O)C(=O)O [compound 127]	–	60	71	–	–	–
CCOC1=C(OC)C(=O)C(C)=C(/C=C(\CCC(C)C)C(=O)O)C1=O [compound 135]	–	52	51	50	–	–
COC1=C(/C=C(\CCC(C)C)C(=O)O)C(=O)C(OC)=C(OC)C1=O [compound 137]	no compound was found to cause death	77	73	30	–	–
COC1=C(OC)C(=O)C(/C=C(\CC2CCCCC2)C(=O)O)=C(C)C1=O [compound 141]	–	100	98	25	–	–
CCOC1=C(OC)C(=O)C(C)=C(/C=C(\CC2CCCCC2)C(=O)O)C1=O [compound 142]	no compound was found to cause death	76	67	100	381 ± 19	–
CCOC1=C(OCC)C(=O)C(/C=C(\CC2CCCCC2)C(=O)O)=C(C)C1=O [compound 144]	–	78	79	100	280 ± 31	–
COC1=C(/C=C(\CC2CCCCC2)C(=O)O)C(=O)C(OC)=C(OC)C1=O [compound 149]	–	93	95	67	209 ± 66	–
COC1=C(OC)C(=O)C(/C=C(\CCCCC#N)C(=O)O)=C(C)C1=O [compound 176]	–	96	97	80	–	297 ± 50
COC1=C(OC)C(=O)C(/C=C(\CCCSC)C(=O)O)=C(C)C1=O [compound 183]	–	86	80	22	–	–
COC1=C(OC)C(=O)C(/C=C(\Cc2cccs2)C(=O)O)=C(C)C1=O [compound 217]	–	97	99	80	–	–
